Measurements published in patent US9963703B2, “Compositions and methods for treating pancreatic cancer” (Autotelic LLC, priority 2016, dated 2018).

Legend:
[1] = system: HUP-T3 pancreatic cancer cells; assay: Cellular proliferation of HUP-T3 pancreatic cancer cells in vitro; conditions: HUP-T3; treatment on day 1 for 5 h; measured after 7 days
Excerpt: (§1) The aim of the study was to determine the effect of AP12009 (trabedersen) treatment in combination with 5-Fluorouracil (5-FU) on TGFβ2 secretion and on cellular proliferation of HUP-T3 pancreatic cancer cells and WiDr colon cancer cells in vitro.

TGFβ2 [2] = assay: TGFβ2 secretion/expression in HUP-T3 pancreatic cancer cells; format: cell-based
Excerpt: as §1

WiDr colon cancer cells = assay: Cellular proliferation of WiDr colon cancer cells in vitro; format: cell-based; conditions: treatment on day 1 for 5 h only
Excerpt: as §1

TGFβ2 [3] = assay: TGFβ2 secretion/expression in WiDr colon cancer cells; format: cell-based
Excerpt: as §1

O=c1[nH]cc(F)c(=O)[nH]1 [5-FU, 5-Fluorouracil, reference compound]
5-FU concentrations that dose-dependently reduced cell proliferation [1]: > 10 µM
5-FU concentrations at which TGFβ2 was suppressed (TGFβ2 [2]): > 75 µM
5-FU concentrations that concentration-dependently reduced cell proliferation (WiDr colon cancer cells): > 38 µM
5-FU concentrations at which TGFβ2 was suppressed (TGFβ2 [3]): > 75 µM
